From patent publication US20150140123A1, “Protein expression analyses for identifying genotoxic compounds” (Merck Patent GmbH, priority 2012, published 2015)
Read-outs that look alike come from different tables or passages of the source.

Experiments:
[1] = test system: HepG2 cells; assay: High content imaging cytotoxicity parameters: selected cell count per valid field (SCC) and CMFDA cytoplasm average intensity
Protocol: (§1) HepG2 cells (Order No. HB-8065, Lot. 58483209, ATCC, Manassas, USA) were cultured in DMEM/F12 with L-Glutamine and 15 mM Hepes supplemented with 10% (v/v) FBS, 1% (v/v) penicillin (10 kU/ml)/streptomycin (10 mg/ml) solution, 0.1% (v/v) gentamicin (50 mg/ml), and 1 mM sodium pyruvate at 37° C. and 5% CO2 in culture flasks. Depending on the experiment, an appropriate number of cells were seeded onto plates after detaching of the cells using trypsin and cells were cultured at 37° C. and 5% CO2 for 24 h prior to treatment. All experiments were performed three times with cells of passages 4-20.
(§2) Cells were seeded onto black Poly-D-Lysin coated 96-well-plates (BD Biocoat, Franklin Lakes, USA) (0.02×10^6 cells/well) and left 24 h for adherence and then treated with test compounds at a maximum concentration of 1 mM which is recommended by the ICH S2(R1) guideline (EMA, 2011). For each compound, nine concentrations were tested with 2-fold serial dilutions. DMSO 1% (v/v) served as vehicle control for the experiments. The treatment procedure was different for direct-genotoxic and pro-genotoxic compounds. The treatment for direct genotoxic compounds was ongoing and was repeated daily over 48 h. Pro-genotoxic compounds were incubated for 6 h together with metabolic activation system (to limit the cytotoxic effect of the S9-mixture). After this period, cells were washed with cell media followed by 18-repeated daily over 48 h. The metabolic activation system used consisted of the following components and concentrations: 8 mM MgCl2, 32.8 mM KCl, 12 mM NADPH, 124 mM phosphate buffer and 2500 pmol/ml cytochrome P450 (CYP) content in the pre-mixture corresponding to 2.4 mM MgCl2, 9.8 mM KCl, 3.6 mM NADPH, 37.2 mM phosphate buffer, and 750 pmol/ml CYP as final concentrations after dilution 1:3.33 with cell culture media.
After treatment, cells were rinsed with PBS (Gibco Invitrogen, Karlsruhe, Germany), and then stained with 10 μM CellTracker Green 5-Chloromethylfluorescein Diacetate (CMFDA) (Invitrogen, Karlsruhe, Germany) in cell culture media for 30 min. CMFDA is per se non-fluorescent and is hydrolyzed by esterase in viable cells to a fluorescent-dye. The reaction with thiol groups leads to a cell-impermeable fluorescent-dye-adduct. The esterase activity can be used as an indicator for viability of cells (Papadopoulos et al., 1994, J Immunol Methods 177, 101-11). Afterwards, cells were washed with PBS and fixed with 3.7% Formaldehyde (Sigma-Aldrich, Taufkirchen, Germany) in PBS for 20 min. After that, cells were washed with PBS and blocked and permeabilized with 2% donkey serum (Millipore, Schwalbach, Germany) and 0.25% Triton X-100 (Sigma-Aldrich, Taufkirchen, Germany) in PBS for 30 min. Primary antibodies were diluted in Blocking/Permeabilization solution to final concentrations of 4 μg/ml anti-p-Chk1 (Ser345) goat polyclonal antibody IgG (santa cruz, Santa Cruz, USA), 4 μg/ml anti-p-ATM (Ser1981) mouse monoclonal antibody IgG1K (Millipore, Schwalbach, Germany) and added to the cells. After incubation for 16-18 h, cells were washed with 0.05% Tween 20 (Calbiochem, Darmstadt, Germany) in PBS, and the secondary antibody/16 μM Hoechst staining solution Blocking/Permeabilization solution was added. Secondary antibodies were diluted 1:400 (Alexa Fluor 555 donkey anti-goat, Alexa Fluor 647 donkey anti-mouse, Invitrogen, Karlsruhe, Germany). After an incubation of 1 h, followed by two additional washing steps with 0.05% Tween 20, cells were washed with PBS and finally PBS was added and cells were measured.
Image acquisition was performed on the ArrayScan VTI HCS Reader (Cellomics, Pittsburgh, USA) using a 20× objective. To detect enough cells, 50 images starting at the middle of each well were gathered.
• Channel 1: selected cell count per valid field • Channel 2: CMFDA cytoplasm average intensity • Channel 3: p-Chk1 (Ser345) nucleus average intensity • Channel 4: p-ATM (Ser1981) nucleus average intensity

[2] = test system: p-p53 (Ser15), p21, p-H2A.X (Ser139), p-ATM (Ser1981), p-Chk1 (Ser345) in HepG2 cells
Protocol: as §1, §2
Two different staining procedures were performed for each compound with and without metabolic activation system:
After treatment, cells were rinsed with PBS (Gibco Invitrogen, Karlsruhe, Germany), and then fixed with 3.7% formaldehyde (Sigma-Aldrich, Taufkirchen, Germany) in PBS for 20 min. After an additional washing step with PBS, cells were blocked and permeabilized with 2% donkey serum (Millipore, Schwalbach, Germany) and 0.25% Triton X-100 (Sigma-Aldrich, Taufkirchen, Germany) in PBS for 30 min. Primary antibodies were diluted to final concentrations of 2 μg/ml anti-p-p53 (Ser15) rabbit monoclonal antibody IgG (Invitrogen, Karlsruhe, Germany), 0.8 μg/ml anti-p21 goat polyclonal antibody IgG, (R&D systems, Minneapolis, USA); 4 μg/ml anti-p-Histone H2A.X (Ser139) mouse monoclonal antibody IgG1 (Millipore, Schwalbach, Germany) in Blocking/Permeabilization solution were added afterwards. After incubation for 16-18 h, cells were washed with 0.05% Tween 20 (Calbiochem, Darmstadt, Germany) in PBS and the secondary antibody/16 μM Hoechst staining solution in Blocking/Permeabilization solution was added. Secondary antibodies were diluted 1:400 (Alexa Fluor 488 donkey anti-rabbit, Alexa Fluor 555 donkey anti-goat, Alexa Fluor 647 donkey anti-mouse, Invitrogen, Karlsruhe, Germany). After an incubation of 1 h, followed by two additional washing steps with 0.05% Tween 20, cells were washed with PBS and finally PBS was added and cells were measured.
After treatment, cells were rinsed with PBS (Gibco Invitrogen, Karlsruhe, Germany), and then stained with 10 μM CellTracker Green 5-Chloromethylfluorescein Diacetate (CMFDA) (Invitrogen, Karlsruhe, Germany) in cell culture media for 30 min. CMFDA is per se non-fluorescent and is hydrolyzed by esterase in viable cells to a fluorescent-dye. The reaction with thiol groups leads to a cell-impermeable fluorescent-dye-adduct. The esterase activity can be used as an indicator for viability of cells (Papadopoulos et al., 1994, J Immunol Methods 177, 101-11). Afterwards, cells were washed with PBS and fixed with 3.7% Formaldehyde (Sigma-Aldrich, Taufkirchen, Germany) in PBS for 20 min.

[3] = test system: p-ATM (Ser1981); assay: High content imaging of p-ATM (Ser1981) nucleus average intensity; format: cell-based, human; details: HepG2 cells, 48 h; fold-change over vehicle control, threshold 1.8
Protocol: as §1
Cells were seeded onto black Poly-D-Lysin coated 96-well-plates (BD Biocoat, Franklin Lakes, USA) (0.02×10^6 cells/well) and left 24 h for adherence and then treated with test compounds at a maximum concentration of 1 mM which is recommended by the ICH S2(R1) guideline (EMA, 2011). […]
After treatment, cells were rinsed with PBS (Gibco Invitrogen, Karlsruhe, Germany), and then stained with 10 μM CellTracker Green 5-Chloromethylfluorescein Diacetate (CMFDA) (Invitrogen, Karlsruhe, Germany) in cell culture media for 30 min. […] After an incubation of 1 h, followed by two additional washing steps with 0.05% Tween 20, cells were washed with PBS and finally PBS was added and cells were measured.
Image acquisition was performed on the ArrayScan VTI HCS Reader (Cellomics, Pittsburgh, USA) using a 20× objective. […]

[4] = HepG2 cells ± S9, 48 h, positive if at least one of five proteins shows fold-change above threshold (2.1 p-Chk1, p-H2A.X; 1.8 p21, p-ATM; 1.9 p-p53)
[5] = HepG2 cells, 48 h, CMFDA cytoplasm average intensity, with rat liver S9 (+S9)
[6] = HepG2 cells, 48 h, CMFDA cytoplasm average intensity, without metabolic activation (−S9)
[7] = HepG2 cells, 48 h, selected cell count per valid field, with rat liver S9 (+S9)
[8] = HepG2 cells, 48 h, selected cell count per valid field, without metabolic activation (−S9)

Compound | result for the five protein markers tested (compound set as positive or negative) [2, 4] | CMFDA +S9 highest conc. <50% cytotox. over control [1, 5] | CMFDA −S9 highest conc. <50% cytotox. over control [1, 6] | SCC +S9 highest conc. <50% cytotox. over control [1, 7] | SCC −S9 highest conc. <50% cytotox. over control [1, 8] | also measured
Oc1ccc(Cl)cc1Cl [2,4-Dichlorophenol] | positive |  |  |  |  | CMFDA +S9 highest conc. <50% cytotox. over control ([1]; human): 1000 µM; CMFDA −S9 highest conc. <50% cytotox. over control ([1]; human): 1000 µM; SCC +S9 highest conc. <50% cytotox. over control ([1]; human): 500 µM; SCC −S9 highest conc. <50% cytotox. over control ([1]; human): 250 µM
Cc1ccc(N)cc1N [2,4-diaminotoluene] | no positive result | 1000 µM | 1000 µM | 1000 µM | 1000 µM | 
[Cl][Cd][Cl] [Cadmium chloride] | no positive result | 62.5 µM | 62.5 µM | 125 µM | 31.25 µM | 
CN(C)N=O [Dimethylnitrosamine] | no positive result | 1000 µM | 1000 µM | 1000 µM | 1000 µM | 
CCN(N=O)C(N)=O [Ethylnitrosourea] | no positive result | 1000 µM | 1000 µM | 1000 µM | 1000 µM | 
C=CCc1ccc(O)c(OC)c1 [Eugenol] |  |  |  |  |  | CMFDA +S9 highest conc. <50% cytotox. over control ([1]; human, 48 h): 125 µM; CMFDA −S9 highest conc. <50% cytotox. over control ([1]; human, 48 h): 1000 µM; SCC +S9 highest conc. <50% cytotox. over control ([1]; human, 48 h): 125 µM; SCC −S9 highest conc. <50% cytotox. over control ([1]; human, 48 h): 1000 µM; result for the five protein markers tested (compound set as positive or negative) [2]: positive
c1ccc2c(c1)ccc1ccccc12 [Phenanthrene] |  |  |  |  |  | CMFDA +S9 highest conc. <50% cytotox. over control ([1]; human, 48 h): 1000 µM; CMFDA −S9 highest conc. <50% cytotox. over control ([1]; human, 48 h): 1000 µM; SCC +S9 highest conc. <50% cytotox. over control ([1]; human, 48 h): 1000 µM; SCC −S9 highest conc. <50% cytotox. over control ([1]; human, 48 h): 1000 µM; result for p-ATM (Ser1981) [3]: positive
CCCOC(=O)c1cc(O)c(O)c(O)c1 [Propyl gallate] |  |  |  |  |  | CMFDA +S9 highest conc. <50% cytotox. over control ([1]; human, 48 h): 1000 µM; CMFDA −S9 highest conc. <50% cytotox. over control ([1]; human, 48 h): 1000 µM; SCC +S9 highest conc. <50% cytotox. over control ([1]; human, 48 h): 1000 µM; SCC −S9 highest conc. <50% cytotox. over control ([1]; human, 48 h): 500 µM; result for the five protein markers tested (compound set as positive or negative) [2]: positive
Nc1ccccc1C(=O)O [o-Anthranilic acid] |  | 1000 µM | 1000 µM | 1000 µM | 1000 µM | 
O=[N+]([O-])c1ccc(O)cc1 [p-Nitrophenol] |  |  |  |  |  | result for the five protein markers tested (compound set as positive or negative) [2]: positive
Nc1ccc(Cl)cc1 [p-chloroaniline] |  |  |  |  |  | CMFDA +S9 highest conc. <50% cytotox. over control ([1]; human): 1000 µM; CMFDA −S9 highest conc. <50% cytotox. over control ([1]; human): 1000 µM; SCC +S9 highest conc. <50% cytotox. over control ([1]; human): 1000 µM; SCC −S9 highest conc. <50% cytotox. over control ([1]; human): 1000 µM
Aflatoxin B1 |  |  |  |  |  | CMFDA +S9 highest conc. <50% cytotox. over control [1]: 500 µM; CMFDA −S9 highest conc. <50% cytotox. over control [1]: 500 µM; SCC +S9 highest conc. <50% cytotox. over control [1]: 500 µM; SCC −S9 highest conc. <50% cytotox. over control [1]: 31.25 µM
Sodium xylene sulfonate |  | 1000 µM | 1000 µM | 1000 µM | 1000 µM | 
